Measured values published in ChEMBL document CHEMBL5038596, “Design, Synthesis, In Vitro and In Vivo Characterization of Selective NKCC1 Inhibitors for the Treatment of Core Symptoms in Down Syndrome” (J Med Chem, 2021).
One block for each compound: values may come before it. Active and inactive are the calls of the source. No cut-off for these calls is given here.

Key:
[1] = molecular target: T1, Solute carrier family 12 member 2 (Homo sapiens) (UniProt P55011); experiment: Inhibition of NKCC1 (unknown origin) transfected in HEK293 cells expressing mbYFPQS plasmid assessed as reduction in Cl- influx at 10 uM incubated for 30 mins by fluorescence multiplate reader analysis; format: cell-based
T1 sequence (whole entry): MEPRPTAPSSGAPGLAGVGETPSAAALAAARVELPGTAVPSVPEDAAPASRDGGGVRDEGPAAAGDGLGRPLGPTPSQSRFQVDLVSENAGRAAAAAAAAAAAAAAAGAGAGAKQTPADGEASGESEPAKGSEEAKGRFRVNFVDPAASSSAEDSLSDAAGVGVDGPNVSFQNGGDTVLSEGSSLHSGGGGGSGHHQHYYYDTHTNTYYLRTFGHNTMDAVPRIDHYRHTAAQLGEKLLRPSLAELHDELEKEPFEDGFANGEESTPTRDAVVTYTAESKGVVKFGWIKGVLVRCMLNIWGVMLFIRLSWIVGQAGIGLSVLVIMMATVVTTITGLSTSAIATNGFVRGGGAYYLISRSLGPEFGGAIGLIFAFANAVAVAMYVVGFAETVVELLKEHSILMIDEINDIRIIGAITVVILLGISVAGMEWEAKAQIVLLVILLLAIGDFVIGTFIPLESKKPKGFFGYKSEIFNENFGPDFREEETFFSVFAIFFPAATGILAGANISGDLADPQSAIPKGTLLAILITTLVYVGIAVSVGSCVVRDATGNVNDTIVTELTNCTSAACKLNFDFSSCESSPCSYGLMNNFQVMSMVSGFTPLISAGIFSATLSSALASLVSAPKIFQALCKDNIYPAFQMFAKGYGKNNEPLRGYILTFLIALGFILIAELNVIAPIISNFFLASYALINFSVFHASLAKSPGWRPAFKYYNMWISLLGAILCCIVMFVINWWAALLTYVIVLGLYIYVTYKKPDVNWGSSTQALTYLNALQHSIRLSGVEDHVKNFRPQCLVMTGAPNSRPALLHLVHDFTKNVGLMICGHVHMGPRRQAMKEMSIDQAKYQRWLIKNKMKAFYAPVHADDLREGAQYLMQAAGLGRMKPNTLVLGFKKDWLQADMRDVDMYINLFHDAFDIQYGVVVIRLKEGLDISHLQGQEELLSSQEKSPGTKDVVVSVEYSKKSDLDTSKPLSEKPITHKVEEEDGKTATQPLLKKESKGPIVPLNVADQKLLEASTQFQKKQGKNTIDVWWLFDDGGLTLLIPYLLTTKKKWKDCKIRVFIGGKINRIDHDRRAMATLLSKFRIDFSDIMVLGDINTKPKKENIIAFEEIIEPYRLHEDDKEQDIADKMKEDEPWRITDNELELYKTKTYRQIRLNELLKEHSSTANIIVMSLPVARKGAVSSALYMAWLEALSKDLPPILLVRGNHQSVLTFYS

[2] = system: Primary neuron; experiment: Inhibition of NKCC1 in mouse primary hippocampal neurons assessed as reduction of Ca2+ uptake at 100 uM incubated for 15 mins by Fluo-4AM dye based fluorescence analysis; format: cell-based
[3] = Solubility of compound in assay buffer at pH 7.4 assessed as precipitation at 100 uM measured after 15 mins; format: physicochemical; settings: pH 7.4, 0.25 h
[4] = molecular target: T1, Solute carrier family 12 member 2 (Homo sapiens); experiment: Inhibition of NKCC1 (unknown origin) transfected in HEK293 cells expressing mbYFPQS plasmid assessed as reduction in Cl- influx at 100 uM incubated for 30 mins by fluorescence multiplate reader analysis; format: cell-based
[5] = Solubility of compound in Cl- free hypotonic solution at pH 7.4 assessed as precipitation at 100 uM measured after 30 mins; format: physicochemical; settings: buffer, pH 7.4, 0.5 h
[6] = Toxicity in mouse assessed as reduction in body weight at 0.6 mg/kg, ip administered daily for 3 weeks; format: organism-based; settings: in vivo, 504 h
[7] = system: Mus musculus; experiment: Cognitive enhancement effect in Ts65Dn mouse assessed as rescue of electric shock induced freezing response at 0.6 mg/kg, ip measured after 1 to 4 weeks by contextual fear-conditioning test; format: functional, organism-based; settings: time 1-4 weeks
[8] = molecular target: T2, Solute carrier family 12 member 5 (Homo sapiens) (UniProt Q9H2X9); experiment: Inhibition of KCC2 (unknown origin) transfected in HEK293 cells assessed a reduction in TI influx at 10 uM incubated for 1 hr by fluorescence based analysis relative to control; format: cell-based
T2 sequence (whole entry): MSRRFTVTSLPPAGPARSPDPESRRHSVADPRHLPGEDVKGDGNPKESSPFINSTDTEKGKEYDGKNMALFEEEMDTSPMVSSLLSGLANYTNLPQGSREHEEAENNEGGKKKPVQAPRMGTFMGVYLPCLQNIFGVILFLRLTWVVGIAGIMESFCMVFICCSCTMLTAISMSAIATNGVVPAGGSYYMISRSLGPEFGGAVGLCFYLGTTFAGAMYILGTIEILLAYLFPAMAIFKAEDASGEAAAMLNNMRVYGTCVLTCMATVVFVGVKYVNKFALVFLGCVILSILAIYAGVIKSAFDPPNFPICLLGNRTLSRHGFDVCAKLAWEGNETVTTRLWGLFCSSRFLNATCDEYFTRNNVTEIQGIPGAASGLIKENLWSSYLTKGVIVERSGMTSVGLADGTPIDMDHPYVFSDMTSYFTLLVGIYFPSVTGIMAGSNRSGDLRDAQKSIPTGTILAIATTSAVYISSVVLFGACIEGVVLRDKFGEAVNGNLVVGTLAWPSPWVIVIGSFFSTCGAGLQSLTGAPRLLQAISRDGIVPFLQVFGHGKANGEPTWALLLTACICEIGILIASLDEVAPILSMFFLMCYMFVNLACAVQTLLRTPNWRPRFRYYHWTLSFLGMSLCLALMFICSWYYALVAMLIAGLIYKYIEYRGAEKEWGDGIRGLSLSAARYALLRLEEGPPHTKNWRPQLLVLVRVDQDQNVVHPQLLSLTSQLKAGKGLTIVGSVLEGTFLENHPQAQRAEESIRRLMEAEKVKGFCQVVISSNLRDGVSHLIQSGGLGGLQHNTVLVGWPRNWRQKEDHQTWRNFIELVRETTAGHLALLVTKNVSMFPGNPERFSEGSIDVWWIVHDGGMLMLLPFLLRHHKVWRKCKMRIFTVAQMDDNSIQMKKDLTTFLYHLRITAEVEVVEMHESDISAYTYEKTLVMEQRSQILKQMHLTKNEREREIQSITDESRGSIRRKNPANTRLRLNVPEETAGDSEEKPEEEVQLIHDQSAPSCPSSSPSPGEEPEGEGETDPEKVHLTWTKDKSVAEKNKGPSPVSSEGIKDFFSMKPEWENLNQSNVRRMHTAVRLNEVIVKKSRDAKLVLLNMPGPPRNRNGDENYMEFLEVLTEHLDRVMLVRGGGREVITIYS

[9] = Toxicity in Ts65Dn mouse assessed as reduction in body weight at 0.6 mg/kg, ip administered daily for 3 weeks; format: organism-based; settings: in vivo, 504 h
[10] = system: Mus musculus; experiment: Diuretic activity in wild type mouse assessed as increase in urine volume at 0.6 mg/kg, ip measured after 2 hrs; format: functional, organism-based
[11] = system: Mus musculus; experiment: Rescue of hyperactivity in Ts65Dn mouse assessed as assessed as reduction in total distance travelled at 0.6 mg/kg, ip measured after 1 to 4 weeks by open field test; format: functional, organism-based; settings: time 1-4 weeks
[12] = system: Mus musculus; experiment: Cognitive enhancement effect in Ts65Dn mouse assessed as rescue of poor novel-discrimination ability by measuring increase in time spent in exploring novel object at 0.6 mg/kg, ip measured after 1 to 4 weeks by novel object recognition test; format: functional, organism-based; settings: time 1-4 weeks
[13] = system: Mus musculus; experiment: Cognitive enhancement effect in Ts65Dn mouse assessed as restoration of short-term working memory by measuring number of correct choices at 0.6 mg/kg, ip measured after 1 to 4 weeks by T-maze test; format: functional, organism-based; settings: time 1-4 weeks
[14] = system: Mus musculus; experiment: Diuretic activity in Ts65Dn mouse assessed as increase in urine volume at 0.6 mg/kg, ip measured after 2 hrs; format: functional, organism-based

inhibition [1]: inactive
SMILES: CCCCNc1ccc([N+](=O)[O-])cc1S(=O)(=O)NC

inhibition [1]: inactive
SMILES: CCCCCCNc1ccc(C(=O)O)cc1S(=O)(=O)N(C)C

inhibition [1]: inactive
SMILES: CN(C)S(=O)(=O)c1cc(C(=O)O)ccc1NCCCC(F)(F)F

solubility [3]: Insoluble
SMILES: CN(C)S(=O)(=O)c1cc(C(=O)O)c(OC2CCCC2)cc1NCCCCCCCC(F)(F)F
inhibition [2]: inactive

inhibition [1]: inactive
SMILES: CCCCNc1ccc([N+](=O)[O-])cc1S(N)(=O)=O

inhibition [1]: inactive
SMILES: CC(C)(C)CCNc1ccc([N+](=O)[O-])cc1S(N)(=O)=O

inhibition [1]: inactive
SMILES: COCCCCNc1ccc(C(=O)O)cc1S(=O)(=O)N(C)C

inhibition [4]: inactive | inhibition [1]: inactive
SMILES: COCCCCCCNc1ccc(C(=O)O)cc1S(=O)(=O)N(C)C

inhibition [1]: inactive
SMILES: CCCCCCNc1ccc([N+](=O)[O-])cc1S(N)(=O)=O

solubility [5]: Insoluble
SMILES: CN(C)S(=O)(=O)c1cc([N+](=O)[O-])ccc1NCCC(C)(C)C

inhibition [1]: inactive
SMILES: CNS(=O)(=O)c1cc(C(=O)O)ccc1NCCC(C)(C)C

inhibition [4]: inactive | inhibition [1]: inactive
SMILES: CN(C)S(=O)(=O)c1cc(C(=O)O)ccc1NCCC(C)(C)C

solubility [3]: Insoluble
SMILES: O=C(O)c1ccc(NCCCCCCCC(F)(F)F)c(S(=O)(=O)N2CCCCC2)c1
inhibition [2]: inactive

inhibition [1]: inactive
SMILES: CCCCCCNc1ccc(C(=O)O)cc1S(N)(=O)=O

inhibition [1]: inactive
SMILES: CN(C)S(=O)(=O)c1cc(C(=O)O)ccc1NCCCCCC(F)(F)F

inhibition [1]: inactive
SMILES: CCCCNc1ccc(C(=O)O)cc1S(N)(=O)=O

inhibition [1]: inactive
SMILES: CC(C)(C)CCNc1ccc(C(=O)O)cc1S(N)(=O)=O

inhibition [1]: inactive
SMILES: CCCCCCCCNc1ccc(C(=O)O)cc1S(N)(=O)=O

inhibition [1]: inactive
SMILES: CCCCCCCCNc1ccc(C(=O)O)cc1S(=O)(=O)N(C)C

solubility [5]: Insoluble | inhibition [1]: inactive
SMILES: CCCCNc1ccc([N+](=O)[O-])cc1S(=O)(=O)N(C)C

inhibition [4]: inactive | inhibition [1]: inactive
SMILES: CCCCCCCCNc1ccc([N+](=O)[O-])cc1S(=O)(=O)NC

solubility [3]: Insoluble
SMILES: O=C(O)c1ccc(NCCCCCCCC(F)(F)F)c(S(=O)(=O)NC2CCCCC2)c1
inhibition [2]: inactive

inhibition [1]: inactive
SMILES: CCCCCCNc1ccc([N+](=O)[O-])cc1S(=O)(=O)N(C)C

inhibition [4]: inactive | inhibition [1]: inactive
SMILES: CCCCCCCCNc1ccc([N+](=O)[O-])cc1S(=O)(=O)N(C)C

solubility [3]: Insoluble
SMILES: O=C(O)c1ccc(NCCCCCCCC(F)(F)F)c(S(=O)(=O)NC2CCCC2)c1
inhibition [2]: inactive

inhibition [8]: inactive | inhibition [1]: inactive
SMILES: CN(C)S(=O)(=O)c1cc(C(=O)O)c(O)cc1NCCCCCCCC(F)(F)F
Activity [6]: Non-Toxic | Activity [7]: Active | Activity [9]: Non-Toxic | Activity [10]: inactive | Activity [11]: Active | Activity [12]: Active | Activity [13]: Active | Activity [14]: inactive

SMILES: CCCCNc1cc(C(=O)O)cc(S(N)(=O)=O)c1Oc1ccccc1
Activity [10]: Active | Activity [14]: Active

inhibition [4]: inactive | inhibition [1]: inactive
SMILES: CCCCCCNc1ccc(C(=O)O)cc1S(=O)(=O)NC
